This note sets out measurements from patent US5221682A, “Heteroarylamino- and heteroaryloxypyridinamines and related compounds” (Hoechst-Roussel Pharmaceuticals Incorporated, priority 1991, dated 1993).

One test addresses T1, porcine pancreatic PLA2 (Sus scrofa, UniProt P00592).
T1 construct: from tissue; host or cells: porcine pancreas
Description: In Vitro Phospholipase A2 Assay (PLA2). As to conditions: 0.01M; read-out: PLA2 (difference vs. control). Type of test: biochemical. The method, then: In Vitro Phospholipase A2 Assay (PLA2)
The ability of a compound to modulate PLA2 activity (cleavage of ^14 C-dipalmitoyl phosphotidylcholine at the 2-position to ^14 C-palmitic acid) was quantitated in this assay. The reaction mixture contained Tris buffer (25 mM), pH 8.0, calcium chloride (2.0 mM), bovine serum albumin (0.5 mg), dipalmitoyl phosphotidylcholine (8×10^-5M), (^14 C-palmitoyl)dipalmitoyl phosphotidylcholine (6×10^3cpm), porcine pancreatic PLA2 (3.2 units) and the test compound. The reaction was run at 37° C. in a shaking incubator. The reaction was quenched and an internal standard was added in order to determine sample recovery. The samples were loaded onto C18 columns, eluted with ethanol, and the radioactivity was then measured. […] See Feyen, J. H. M., et al., Journal of Chromatography 259 (1983), pp. 338-340.

The test system of test [1] is mouse ear edema induced by topical application of arachidonic acid. Description: Arachidonic Acid-Induced Ear Edema (AAEE). The test is classed as in vivo, Female Swiss Webster mice. Particulars: for AAEE: 1 mg (1.0 mg/ear). The method, then: Arachidonic Acid-Induced Ear Edema (AAEE)
Female Swiss Webster mice topically received vehicle or test compound (1.0 mg/ear) on both ears (10 μl on outer and inner ears). After 30 minutes, the right ear of all groups received arachidonic acid (4 mg/ear) and the left ear received vehicle alone. […] See Young, J. M. et al., Invest. Dermatol., 80, (1983), pp 48-52.

The subject of test [2] is naja naja (snake venom) phospholipase A2 -induced paw edema. Nature of the test: Phospholipase A2-induced Paw Edema (PIPE). Particulars: for PIPE, difference in edema vs. control: 0.1M, rat, subplantar injection, two hours. Type of test: in vivo, male Wistar rats. The method, then: Phospholipase A2 -induced Paw Edema (PIPE)
The ability of compounds to prevent naja naja (snake venom) phospholipase A2 -induced paw edema in male Wistar rats (100-125 g) was measured. PLA2 (3 units/paw) alone or with 0.1M of the test compound was injected in the subplantar region of the rat left hindpaw. Immediately subsequent to the injection and at two hours post administration the paw was immersed in a mercury bath, and paw displacement was measured on a recorder via a transducer. […] See Giessler, A. J. et al., Agents and Actions, Vol. 10, Trends in Inflammation Research (1981), p. 195.

Test [3] deals with ear edema induced by topical application of TPA (phorbol 12-myristate acetate). Description: TPA-Induced Ear Edema (TPAEE). As to conditions: for change in vivo at 10 µg/ear: Mus musculus, 5 h, read-out: TPAEE.
Description: Female Swiss Webster mice topically received TPA (10 μg/ear) on the right ear and vehicle on the left ear. The test compound (10 μg/ear) was applied to both ears. After five hours, the animals were sacrificed and an ear punch (4 mm) was taken from each ear. The difference in right and left ear punch weights for each animal was determined to assess activity.
The subject of another test is epidermal DNA synthesis. Description: Epidermal DNA Synthesis (in vivo DNA). More on the design: species or system HRS/J hairless mice. Particulars: topical, hairless mice; for in vivo DNA: 2.5 mg. As for the experimental part: Epidermal DNA Synthesis (in vivo DNA)
The influence of compounds on the proliferation of skin was assessed by determining inhibition or stimulation of DNA synthesis. HRS/J hairless mice received topical application of a compound or vehicle alone on the dorsal aspect. After 24 hours, ^3 H-thymidine (25 μCi) was administered by intraperitonal injection. After an additional hour, animals were sacrificed and the dorsal skin was removed. The epidermal layer was peeled from the dermis by heat separation. Unincorporated ^3 H-thymidine was removed by washing successively with trichloroacetic acid and ethanol. Samples were centrifuged at 2,000 rpm and supernatants discarded. The epidermal sheets were then extracted with warm trichloroacetic acid and the supernatants analyzed for ^3 H-thymidine incorporation by scintillation counting and total DNA by a standard colorimetric assay. […] See Lowe, N. J., et al., Arch. Dermatol., 117 (1981), pp. 394-8; and Burton, K., Biochem. J. 62 (1956), pp. 315-22.

For test [4], the system named is cultured human epidermal keratinocytes. Nature of the test: Culture Human Keratinocyte DNA Synthesis (in vitro DNA). The test is classed as cell-based. As for the experimental part:
Culture Human Keratinocyte DNA Synthesis (in vitro DNA)
The effect of a compound on the proliferation of cultured human epidermal keratinocytes was measured. After incubation with a test compound for 24 hours, the cultures were pulse-labelled for three hours with 5 μCi of ^3 H-thymidine. The cultures were extracted for DNA successively with trichloroacetic acid and ethanol, and thereafter dissolved with NaOH. The radioactive incorporation of ^3 H-thymidine into DNA was determined.

T1 sequence (P00592 23-146): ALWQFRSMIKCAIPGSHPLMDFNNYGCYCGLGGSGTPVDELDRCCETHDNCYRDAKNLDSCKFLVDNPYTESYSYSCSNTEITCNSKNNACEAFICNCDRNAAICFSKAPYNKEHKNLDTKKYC

Consider `Nc1ccncc1Nc1ccc2cn[nH]c2c1` [N-(4-Amino-3-pyridinyl)-1H-indazol-6-amine], for which the inhibition at 10000 µM at porcine pancreatic PLA2 amounted to 57%. In addition, the AAEE in test [1] is on record as -35%.

In the case of `O=[N+]([O-])c1cc[n+]([O-])cc1Nc1ccc2[nH]ccc2c1` [N-(4-Nitro-3-pyridinyl)-1H-indol-5-amine, N^5-oxide], the inhibition at 10000 µM on porcine pancreatic PLA2 was determined as 71%.

For `Cn1ccc2cc(Nc3c[n+]([O-])ccc3[N+](=O)[O-])ccc21` [1-Methyl-N-(4-nitro-3-pyridinyl)-1H-indol-5-amine, N^5-oxide], the “PIPE, difference in edema vs. control” value in test [2] is on record as -41%. At porcine pancreatic PLA2, the inhibition at 10000 µM was determined as 66%. The change in vivo at 10 µg/ear in test [3] was -30%.

As for `Nc1cnccc1Oc1ccc2[nH]ccc2c1` [4-[(1H-Indol-5-yl)-oxy]-3-pyridinamine, 4-[(1H-Indol-5-yl)oxy]-3-pyridinamine], the “PIPE, difference in edema vs. control” value in test [2] is recorded as -52%.

Turning to `O=[N+]([O-])c1cc[n+]([O-])cc1Nc1cccc2cc[nH]c12` [N-(4-Nitro-3-pyridinyl)-1H-indol-7-amine, N^7-oxide], the change in vivo at 10 µg/ear in test [3] is -40%.

As for `Nc1ccncc1Oc1ccc2[nH]ccc2c1` [3-[(1H-Indol-5-yl)-oxy]-4-pyridinamine, 3-[(1H-Indol-5-yl)oxy]-4-pyridinamine], in test [2], the “PIPE, difference in edema vs. control” value is recorded as -62%. At porcine pancreatic PLA2, the inhibition at 10000 µM stood at 34%. The “in vivo DNA” value in the test on epidermal DNA synthesis is on record as -37%. The change in vivo at 10 µg/ear in test [3] was -42%. In test [1], the AAEE is -50%.

Turning to `C[C@]12CCC(=O)C=C1CC[C@@H]1[C@@H]2[C@@H](O)C[C@@]2(C)[C@H]1CC[C@]2(O)C(=O)CO` [hydrocortisone, reference compound], the “ED50 (Standard)” value came to 0.46 M in test [2] (PIPE standard, rat paw) and 47 μg/ear in test [3] (TPAEE standard, mouse).

Consider `Nc1ccncc1Nc1ccc2c(c1)CCC2` [N^3-(Indan-5-yl)-3,4-pyridinediamine], for which the change in vivo at 10 µg/ear in test [3] was -75%. In addition, in test [1], the AAEE is recorded as -49%.

For `Cn1ccc2cc(Nc3cnccc3N)ccc21` [N-(4-Amino-3-pyridinyl)-1-methyl-1H-indol-5-amine], in test [2], the “PIPE, difference in edema vs. control” value is recorded as -42%. Also, the inhibition at 10000 µM at porcine pancreatic PLA2 is 62%.

For the molecule `O=[N+]([O-])c1cc[n+]([O-])cc1NC1CCc2ccccc21` (stereo not drawn) [N-(Indan-1-yl)-4-nitro-3-pyridinamine-1-oxide], in test [3], the change in vivo at 10 µg/ear is -65%.

As to `O=[N+]([O-])c1cc[n+]([O-])cc1Nc1ccc2c(c1)CCC2` [N-(Indan-5-yl)-4-nitro-3-pyridinamine-1-oxide], in test [3], the change in vivo at 10 µg/ear is -48%. Also, in test [1], the AAEE is on record as -44%.

For `CC(=O)N1CCc2cc(Nc3cnccc3N)ccc21` [1-Acetyl-N-(4-amino-3-pyridinyl)-2,3-dihydro-1H-indol-5-amine], in test [1], the AAEE was -36%.

In general, IC50 refers to the midpoint of a concentration-inhibition curve. For `COc1ccc2c(c1)c(CC(=O)O)c(C)n2C(=O)c1ccc(Cl)cc1` [indomethacin, reference compound], the “ED50 (Standard)” value in the test on epidermal DNA synthesis (in vivo DNA standard) was 1.75 mg/animal; in test [1] (AAEE standard), 1.5 mg/ear. For the same molecule, the IC50 in test [4] (read-out: IC50 (Standard)) came out at 38 µM.

In the case of `Nc1ccncc1Nc1ccc2[nH]ccc2c1` [N-(4-Amino-3-pyridinyl)-1H-indol-5-amine], in test [2], the “PIPE, difference in edema vs. control” value is reported as -67%. In addition, the inhibition at 10000 µM on porcine pancreatic PLA2 turned out to be 87%. In addition, the “in vivo DNA” value in the test with epidermal DNA synthesis was -27%. Further, the inhibition at 50 µM in test [4] (50 μM, 24 hours) came out at 81%. Moreover, the change in vivo at 10 µg/ear in test [3] was -85%. Also, the AAEE in test [1] is on record as -41%.

Turning to `Nc1cc[n+]([O-])cc1Nc1cccc2cc[nH]c12` [N-(4-Amino-3-pyridinyl)-1H-indol-7-amine, N^7-oxide], in test [2], the “PIPE, difference in edema vs. control” value is reported as -45%. Besides, in test [3], the change in vivo at 10 µg/ear is -38%.

For the molecule `O=[N+]([O-])c1cc[n+]([O-])cc1Nc1ccc2cn[nH]c2c1` [N-(4-Nitro-3-pyridinyl)-1H-indazol-6-amine, N^6-oxide], the inhibition at 10000 µM at porcine pancreatic PLA2 is 83%.

As for `Nc1cnccc1Nc1ccc2[nH]ccc2c1` [N-(3-Amino-4-pyridinyl)-1H-indol-5-amine], on porcine pancreatic PLA2, the inhibition at 10000 µM amounted to 82%. For the same molecule, the AAEE in test [1] is reported as -37%.

Regarding `O=[N+]([O-])c1cnccc1Nc1ccc2[nH]ccc2c1` [N-(3-Nitro-4-pyridinyl)-1H-indol-5-amine], the inhibition at 10000 µM at porcine pancreatic PLA2 was 36%.

Consider `O=[N+]([O-])c1cc[n+]([O-])cc1Nc1ccc2[nH]ncc2c1` [N-(4-Nitro-3-pyridinyl)-1H-indazol-5-amine, N^5-oxide], for which the change in vivo at 10 µg/ear in test [3] was -78%.
